# Data from patent US11001850B2, “Constructs and methods for biosynthesis of cyclopamine” (priority 2014, dated 2021).
# Experiments:
# Assay type in all cases: biochemical, Veratrum californicum
# [1] = test system: CYP90B27 (cholesterol 22-hydroxylase); experiment: Substrate testing of CYP90B27 (cholesterol 22-hydroxylase) co-expressed with CPR in Sf9 cells; parameters: key to Production of a detectable product (substrate testing), CYP90B27: Production of a detectable product is indicated by a (+); conditions: for Production of a detectable product (substrate testing), CYP90B27: 7.5 μM substrate, crude Sf9 cell suspension with CPR, 1.25 mM NADPH, 30° C. for 2 hours, GC-MS or LC-MS/MS; for Hydroxylation of substrate by cholesterol 22-hydroxylase (VC2646), in words: Sf9 cells with CPR, GC-MS
# Procedure: Compounds were prepared to 1 mM stock solutions of 100% DMSO and diluted with H2O.
# (§1) Standards were obtained from Sigma Aldrich, Research Plus, and Avanti. For GC-MS analysis, 5 individual assays per substrate were pooled after incubation at 30° C. for 2 hours; one assay produced sufficient product for analysis by LC-MS/MS. Assay conditions were as follows: 80 μl S. frugiperda Sf9 cell suspension (obtained by re-suspension of 50 ml viral infected culture pellet in 3.5 ml of 100 mM tricine pH 7.4/5 mM thioglycolic acid), 60 mM potassium phosphate buffer pH 8, 1.25 mM NADPH, 7.5 μM substrate, and H2O in a total volume of 200 μl. Controls were performed with no enzyme and S. frugiperda Sf9 cells expressing an unrelated cytochrome P450, or CPR-only, for each assay.
# [2] = test system: CYP90G1 (22-hydroxy-26-aminocholesterol 22-oxidase); experiment: Substrate testing of CYP90G1 (22-hydroxy-26-aminocholesterol 22-oxidase) co-expressed with CPR in Sf9 cells; parameters: key to Production of a detectable product (substrate testing), CYP90G1: Production of a detectable product is indicated by a (+); conditions: for Production of a detectable product (substrate testing), CYP90G1: 7.5 μM substrate, crude Sf9 cell suspension with CPR, 1.25 mM NADPH, 30° C. for 2 hours, GC-MS or LC-MS/MS; for Oxidation of the 22-hydroxy position of substrate by VC13284 (22-hydroxy-26-aminocholesterol 22-oxidase), in words: Sf9 cells with CPR, GC-MS / LC-MS/MS
# Procedure: (§2) Each cytochrome P450 co-expressed with CPR in S. frugiperda Sf9 cells was subjected to individual enzyme assays with the compounds found in Table 6 to determine functionality. Compounds were prepared to 1 mM stock solutions of 100% DMSO and diluted with H2O.
# as §1
# [3] = test system: CYP94N1 (22-hydroxycholesterol 26-hydroxylase/oxidase); experiment: Substrate testing of CYP94N1 (22-hydroxycholesterol 26-hydroxylase/oxidase) co-expressed with CPR in Sf9 cells; parameters: key to Production of a detectable product (substrate testing), CYP94N1: Production of a detectable product is indicated by a (+); conditions: for Hydroxylation of substrate by VC12709 (22-hydroxycholesterol 26-hydroxylase/oxidase), in words: Sf9 cells with CPR, GC-MS
# Procedure: as §2, §1
# Assay for GC-MS: Cytochrome P450 enzyme assay conditions were identical to those stated above using S. frugiperda Sf9 cell suspensions with the following modifications. First, 12 assays each containing 22-hydroxy-26-aminocholesterol 22-oxidase+CPR, 22-hydroxycholesterol 26-hydroxylase/oxidase+CPR, or control cytochrome P450+CPR and each with pure 22(R)-hydroxycholesterol were allowed to incubate overnight at 30° C. Like assays were pooled, extracted 3 times with 2 volumes ethyl acetate, dried under N2, and re-suspended in 180 μl of 25% DMSO. Extracts containing the enzymatic product of the 22-hydroxycholesterol 26-hydroxylase/oxidase+CPR and 22(R)-hydroxycholesterol were divided equally and used as substrate for 22-hydroxy-26-aminocholesterol 22-oxidase+CPR and control cytochrome P450+CPR. Extracts containing the enzymatic product of 22-hydroxy-26-aminocholesterol 22-oxidase+CPR and 22(R)-hydroxycholesterol were divided and used as substrate in 6 assays containing 22-hydroxycholesterol 26-hydroxylase/oxidase+CPR and 6 assays containing control cytochrome P450+CPR. Control P450+CPR assay was run in parallel, treated identically and added to another control P450 assay. Refer to FIG. 1A for an overview of the experiment. Assays were allowed to incubate for 20 min at 30° C. then stopped by addition of 20 μl of 20% TCA with vortexing. Like assays were pooled, extracted, derivatized, and analyzed by GC-MS using the method stated above.
SMILES,"Production of a detectable product (substrate testing), CYP90B27 [1]","Hydroxylation of substrate by cholesterol 22-hydroxylase (VC2646), in words [1]","Production of a detectable product (substrate testing), CYP90G1 [2]","Oxidation of the 22-hydroxy position of substrate by VC13284 (22-hydroxy-26-aminocholesterol 22-oxidase), in words [2]","Production of a detectable product (substrate testing), CYP94N1 ([3]; 7.5 μM substrate, crude Sf9 cell suspension with CPR, 1.25 mM NADPH, 30° C. for 2 hours, GC-MS or LC-MS/MS)","Hydroxylation of substrate by VC12709 (22-hydroxycholesterol 26-hydroxylase/oxidase), in words [3]"
CC(C)CCC[C@@H](C)[C@H]1CC[C@H]2[C@@H]3[C@@H](O)C=C4C[C@@H](O)CC[C@]4(C)[C@H]3CC[C@]12C [7β-hydroxycholesterol],+,hydroxylated,,,,
CC(C)CC[C@@H](O)[C@@H](C)[C@H]1CC[C@H]2[C@@H]3CC=C4C[C@@H](O)CC[C@]4(C)[C@H]3CC[C@]12C [22(R)-hydroxycholesterol],+,,+,oxidizes the 22-hydroxy position,+,found to hydroxylate
"CC(CO)CCC(O)[C@@H](C)[C@H]1CC[C@H]2[C@@H]3CC=C4C[C@@H](O)CC[C@]4(C)[C@H]3CC[C@]12C (stereo partly shown) [22,26-dihydroxycholesterol]",,,+,oxidizes the 22-hydroxy position,,
CC(CN)CCC(O)[C@@H](C)[C@H]1CC[C@H]2[C@@H]3CC=C4C[C@@H](O)CC[C@]4(C)[C@H]3CC[C@]12C (stereo partly shown) [22-hydroxy-26-aminocholesterol],,,,oxidizes the 22-hydroxy position,,
CC(C)CCC(=O)[C@@H](C)[C@H]1CC[C@H]2[C@@H]3CC=C4C[C@@H](O)CC[C@]4(C)[C@H]3CC[C@]12C [22-keto-cholesterol],,,,,,unable to hydroxylate
C[C@@H](CO)CCC[C@@H](C)[C@H]1CC[C@H]2[C@@H]3CC=C4C[C@@H](O)CC[C@]4(C)[C@H]3CC[C@]12C [26-hydroxycholesterol],+,hydroxylated,,,,
CC(C)CCC[C@@H](C)[C@H]1CC[C@H]2[C@@H]3CC=C4C[C@@H](O)CC[C@]4(C)[C@H]3CC[C@]12C [cholesterol],+,added a hydroxyl group to the 22-position,,,,not detected
